Measured values from patent publication US20030077317A1, “Methods and compositions for enhancing the bioadhesive properties of polymers using organic excipients” (Brown University Research Foundation, priority 1996, published 2003).

What was measured:
everted intestine = assay: Distribution of acetaminophen in tissue compartments after incubation of everted intestine in vitro; assay type: in vitro ADME, rat
Description: An in vitro assay for quantifying bioadhesion of microspheres to intestinal tissue was used to test the hot melt microspheres made as described in Example 2 (Jacob et al., Proceed,. Intern. Symp. Control. Rel. Bioact. Mater. 22:312-313 (1995). Everted sac experiments were performed using the microsphere formulations listed above. 6 cm segments of rat jejunum flushed with phosphate buffered saline (PBS), everted and fashioned into sacs filled with PBS. Sacs were incubated with 60 mg of microspheres in 5 ml of PBS at 37° C. with end-over-end agitation. After 30 min, the sacs were removed and the unbound microspheres were collected, washed with distilled water, frozen and lyophilized for 24 hrs. The weight of unbound beads was used to determine the amount of beads bound to the intestine:
The FAPP:SAPP 92:8 18% acetaminophen microspheres were made using the hot melt method described in Example 2, and were used in everted sac experiments and the release of drug was determined to yield information on bioavailability. The release was determined by homogenizing intestinal tissue and mucosal and serosal fluids. The homogenates were centrifuged and the supernatant fluids were assayed for acetaminophen.

rats = assay: Oral (stomach tube) insulin delivery in rat model, glucose tolerance after subcutaneous glucose load; assay type: in vivo; conditions: fed by stomach tube, by 3 hours
Description: The delivery of insulin after adminstration of the nanoparticles, loaded with 10% (w/w) micronized FeO, was studied in a rat model. Five 300 g fasted rats were anaesthetized with Metofane and fed the following formulations by stomach tube: Rats 1 and 2: 0.5 mL saline Rat 3: 24 I.U. insulin/0.5 mL saline (amorphous suspension) Rats 4 and 5: 50 mg FAPP/PLGA nanospheres containing 20 I.U. insulin and 10% (w/w)FeO Blood samples from the tail vein were taken as an initial baseline and rats were subsequently tested for glucose tolerance following injection of a subcutaneous glucose load, consisting of 5 mL of 5% sterile glucose solution. Tutwiler et al., Diabetes, 27:856-867 (1978). At 1, 3, 4 and 5 hours postfeeding, blood samples were again taken and plasma glucose levels were measured spectrophotometrically at 505 nm using the Trinder glucose assay.

Row | acetaminophen in gut wall (everted intestine; everted intestine in vitro) | acetaminophen in mucosal fluid (everted intestine; everted intestine in vitro) | acetaminophen in serosal fluid (everted intestine; everted intestine in vitro) | mucosal/serosal ratio (everted intestine; everted intestine in vitro) | acetaminophen distribution, gut wall (everted intestine; everted sac) | acetaminophen distribution, mucosal fluid (everted intestine; everted sac) | acetaminophen distribution, serosal fluid (everted intestine; everted sac) | Compound | increase in blood glucose level over fasting baseline (rats)
1 | 19 ± 7 mg/dL | 39 ± 1 mg/dL | 13 ± 1 mg/dL | 3.0 | 7.9 ± 0.9 % of total dose | 86.5 ± 1.5 % of total dose | 5.7 ± 0.9 % of total dose | CC(=O)Nc1ccc(O)cc1 [control, acetaminophen] | 
2 |  |  |  |  |  |  |  | insulin [oral insulin solution] | 62%
